Columns and labels:
[1] = system: B16 murine melanoma cells; experiment: MTT cell viability assay on B16 cells; format: cell-based, mouse; conditions: for IC50: MTT
Description: (§1) Human fibroblast cells (BJ-ATCC CRL-2522, USA) were grown in minimal essential medium (MEM) supplemented with 2 mM L-Glutamine, 10% fetal calf serum (FCS), 100 units/mL of penicillin, and 100 µg/mL of streptomycin at 37 °C in a humidified incubator under an atmosphere containing 5% CO2. Mouse melanoma cells (B16-ATCC CRL-6475, USA) were grown in DMEM (Dulbecco’s Modified Eagle Medium) supplemented with reagents like MEM. All cell cultivation media and reagents were purchased from Biochrom AG (Berlin, Germany) and Sigma-Aldrich (Darmstadt, Germany).
(§2) Cell viability was evaluated using the MTT assay (3-(4,5-dimethylthiazol-2-yl)-2,5-diphenyltetrazolium bromide) as previously described. Briefly, BJ and B16 cells were seeded in 96-well plates at densities of 10,000 cells/well and 7000 cells/well and further cultured in the medium for 24 h. The next day, the investigated compounds were added at a concentration of 1 to 25 μM for 24 and 48 h. The cells cultivated in medium without the studied samples served as negative controls. After incubation for the desired times, the medium was replaced with MTT solution (1 mg/mL) and incubated for an additional 4 h at 37 °C. Finally, the medium was collected, and DMSO was used to dissolve the insoluble formazan product. A Mithras 940 (Berthold, Bad Wildbad, Germany) plate reader was used to measure the absorbance of the samples at 570 nm. The data were corrected for background, and the percentage of viable cells was obtained using the following equation:Cell viability = [(A570 of treated cells)/(A570 of untreated cells)] × 100 (%)
(§3) Half-maximal inhibitory concentration (IC50) was determined by fitting the data with a sigmoidal logistic function using Origin 8.1 (Microcal Inc., Northampton, MA, USA) software.

[2] = system: Human fibroblast cells (BJ); experiment: MTT cell viability assay on BJ cells; format: cell-based; conditions: for IC50: MTT
Description: as §1, §2, §3

[3] = system: B16 cells; experiment: Cell cycle analysis (PI, flow cytometry); format: cell-based, mouse; conditions: 24 h; for cells in the G2/M phase: untreated 15.53%; for cells in the S phase: untreated 25.65%; for cells in the G0/G1 phase: untreated 49.70%; for changes in the cell cycle: 1 μM or 5 μM
Description: Twenty-four hours after treatment of B16 cells with concentrations of 1 and 5 μM of each compound, cells were harvested and fixed with pre-chilled 70% ethanol solution at −20 °C. Cells were incubated with 0.2 mg/mL RNAse and 20 μg/mL propidium iodide (PI) in a 0.1% Triton TX-100 solution, in the dark, for 30 min at 37 °C. Cell cycle distribution was analyzed using a Beckman Coulter Cell Lab Quanta SC Flow Cytometer (Indianapolis, IN, USA), and the data were analyzed using the Quanta Analysis software.

[4] = EPR, interaction with superoxide (KO2); conditions: 100 µM in DMSO, KO2 added
Description: The C, N, and H chemical analyses were carried out with a EuroEA elemental analyzer. Fourier Transform Infrared spectroscopy (FTIR) spectra were recorded with a Tensor 37 spectrometer (Bruker, Billerica, MA, USA) in the 400–4000 cm^−1 range. A Jasco V 670 spectrophotometer (Jasco, Easton, MD, USA) with Spectralon as a standard in the 200–1500 nm range was used to record the UV-Vis spectra in solid-state. A continuous wave X-Band Bruker EMX plus EPR spectrometer (Bruker, Karlsruhe, Germany) equipped with a Bruker X-SHQ 4119HS-W1 X-Band resonator was used for the X-band EPR measurements. The parameters for the X-Band measurements were set as follows: microwave frequency 9.879 GHz, microwave power 6.325 mW, modulation amplitude 0.2 mT, conversion time 74.17 ms, and time constant 40.96 ms at 35 scans. All measurements were carried out at room temperature. Simultaneous Thermogravimetric/Differential Scanning Calorimetry–Mass spectroscopy (TG-DSC/MS) measurements were performed on a TGA/DSC1 Thermal Analyser (Mettler Toledo, Schwarzenbach, Switzerland), coupled to a Vacuum Thermostar Mass Spectrometer (Pfeiffer, Asslar, Germany) under the following conditions: isothermal conditioning at 25 °C, temperature range from 25 to 800 °C, heating rate 5 °C/min, dynamic air atmosphere with a flow rate of 100 mL/min, sample masses of 2–4 mg, 150 μL platinum crucible; empty crucible served as reference. The blank curve was subtracted. Evolved gasses were introduced into the Mass Spectrometer via a 75 cm heated capillary.
In contrast, all compounds in the presence of HO⋅ radicals show the trapping ability of these radicals, as indicated by the additional EPR signals in all four EPR spectra.

[5] = system: MKN-45 cells; parameters: method as in doi:10.1080/00958972.2018.1447668; conditions: 48 h of incubation; cited from earlier work

| Compound | cell viability ([1]; 10 μM) [%] | IC50 ([1]; 24 h) [µM] | IC50 ([1]; 48 h) [µM] | cell viability ([1]; up to 25 μM) | cell viability ([2]; 10 μM) [%] | IC50 ([2]; 24 h) [µM] | IC50 ([2]; 48 h) [µM] | cell viability ([2]; up to 25 μM) | cells in the sub-G1 phase ([3]; 5 μM, untreated 9.11%) [%] | cells in the G2/M phase ([3]; 5 μM) [%] | cells in the S phase ([3]; 5 μM) [%] | cells in the G0/G1 phase ([3]; 5 μM) [%] | response to O2⋅^− radicals (EPR) [4] | cytotoxicity compared with 5-fluorouracil [5] | changes in the cell cycle [3] |
| --- | --- | --- | --- | --- | --- | --- | --- | --- | --- | --- | --- | --- | --- | --- | --- |
| CC(=O)C=C([O-])c1ccccc1.[Cu+2].[O-][Cl+3]([O-])([O-])[O-].c1cnc2c(c1)ccc1cccnc12 [Compound (1), [Cu(phen)(bzac)(ClO4)]] | 10 | 3.48 | 2.2 | about 5% | 20 | 3.95 | 2.8 | about 15% | 18.43 | 5.59 | 15.82 | 60.14 | exhibit a scavenging response | significantly more cytotoxic against MKN-45 cells than 5-fluorouracil | – |
| CC(=O)C=C([O-])c1ccccc1.O.O=[N+]([O-])[O-].[Cu+2].c1cnc2c(c1)ccc1cccnc12 [Compound (2), [Cu(phen)(bzac)(NO3)]⋅H2O] | 10 | 2.65 | 1.44 | about 5% | 20 | 4.85 | 2.48 | about 15% | – | 10.78 | 13.81 | 54.90 | exhibit a scavenging response | – | – |
| CC(=O)C=C([O-])c1ccccc1.[Cu+2].[O-][Cl+3]([O-])([O-])[O-].c1ccc(-c2ccccn2)nc1 [Compound (3), [Cu(bpy)(bzac)]ClO4] | – | 8.28 | 4.65 | – | – | 11 | 10.4 | – | – | – | – | – | exhibit a scavenging response | significantly more cytotoxic against MKN-45 cells than 5-fluorouracil | no changes in the cell cycle were observed |
| CC(=O)C=C([O-])c1ccccc1.O=[N+]([O-])[O-].[Cu+2].c1ccc(-c2ccccn2)nc1 [Compound (4), [Cu(bpy)(bzac)(NO3)]] | – | 6.43 | 4.7 | – | – | 11.7 | 10.3 | – | – | – | – | – | neither scavenging nor a trapping ability toward superoxide radicals | – | no changes in the cell cycle were observed |
